Results published in patent US4582821A, “Inhibition of cyclic nucleotide independent protein kinases” (E. I. Du Pont de Nemours and Company, priority 1983, dated 1986).

Tests used:
[1] = system: A-431 plasma membrane extracts (EGF-mediated protein phosphorylation); test: Protein phosphorylation in solubilized A-431 plasma membrane extracts, with or without EGF; format: biochemical, human
Procedure, shortened: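 Triton X-100-solubilized A-431 plasma membranes (15-150 μg protein) in 20 mM Hepes pH 7.4 with 1 mM MnCl2, ± 100 ng EGF, preincubated with compound 10 min at ~23°, then 10 min at 0°. Phosphorylation started with 15 μM [γ-32P]ATP, stopped after 3 min at 0°; TCA-precipitated radioactivity counted.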

A-431 cell EGF receptor = target: T1, A-431 cell EGF receptor (Homo sapiens, UniProt P00533); test: Protein phosphorylation of A-431 cell membrane EGF receptors (intact membranes, EGF present); format: biochemical; conditions: 600 nmoles/mg protein, intact A-431 membranes
T1 construct: intact A-431 cell membranes were employed, rather than solubilized extracts; endogenous in cells; host or cells: A-431 human epidermoid carcinoma cells (plasma membranes)
T1 sequence (P00533 25-1210): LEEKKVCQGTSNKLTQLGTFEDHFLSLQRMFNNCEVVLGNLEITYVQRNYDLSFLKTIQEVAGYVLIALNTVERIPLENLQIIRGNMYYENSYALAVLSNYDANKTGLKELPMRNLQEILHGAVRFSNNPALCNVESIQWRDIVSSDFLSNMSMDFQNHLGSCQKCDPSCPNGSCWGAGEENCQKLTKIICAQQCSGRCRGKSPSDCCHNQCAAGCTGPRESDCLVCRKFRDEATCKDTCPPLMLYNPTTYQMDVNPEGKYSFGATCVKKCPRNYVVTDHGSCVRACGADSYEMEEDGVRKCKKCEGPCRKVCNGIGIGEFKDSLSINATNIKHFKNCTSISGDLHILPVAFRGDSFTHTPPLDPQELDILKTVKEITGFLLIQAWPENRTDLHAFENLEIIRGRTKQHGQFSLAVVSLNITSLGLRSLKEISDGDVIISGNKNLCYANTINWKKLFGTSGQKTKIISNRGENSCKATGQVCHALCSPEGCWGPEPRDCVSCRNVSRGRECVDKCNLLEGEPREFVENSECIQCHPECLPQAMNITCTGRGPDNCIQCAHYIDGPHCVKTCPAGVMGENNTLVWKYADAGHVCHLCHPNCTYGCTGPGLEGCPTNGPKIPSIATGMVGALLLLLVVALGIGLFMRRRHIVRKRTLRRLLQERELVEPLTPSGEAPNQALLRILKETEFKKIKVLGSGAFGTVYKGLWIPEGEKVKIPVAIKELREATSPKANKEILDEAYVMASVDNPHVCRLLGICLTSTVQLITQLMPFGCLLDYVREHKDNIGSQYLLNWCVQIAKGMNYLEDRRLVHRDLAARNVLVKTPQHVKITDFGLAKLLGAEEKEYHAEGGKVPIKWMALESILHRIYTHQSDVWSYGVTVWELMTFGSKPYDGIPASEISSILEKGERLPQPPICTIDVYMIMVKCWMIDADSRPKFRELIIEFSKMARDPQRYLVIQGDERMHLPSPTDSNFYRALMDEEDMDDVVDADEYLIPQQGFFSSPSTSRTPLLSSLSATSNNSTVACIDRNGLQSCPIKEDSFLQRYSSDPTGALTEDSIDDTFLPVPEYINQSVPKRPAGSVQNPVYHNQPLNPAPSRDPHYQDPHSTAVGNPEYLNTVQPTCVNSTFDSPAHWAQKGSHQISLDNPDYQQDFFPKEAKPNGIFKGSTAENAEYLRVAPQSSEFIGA
Experimental: Protein phosphorylation assays were conducted substantially as described by Carpenter et al., J. Biol. Chem. 254:4884 (1979). Each assay mixture contained, in a final volume of 70 μL: 20 mM Hepes, pH 7.4, 0.01% bovine serum albumin (BSA), 15-150 μg protein in Triton extract, 100 ng EGF, 1 mM MnCl2 and 10-20 μM [γ-^32 P] ATP (2-4 μCi). Peptide halomethyl ketones were added as solutions in ethanol; an equivalent volume of ethanol was added to controls. Assay mixtures were incubated at about 23° for ten minutes, with or without added EGF. Mixtures were then held at 0° for ten minutes before initiation of phosphorylation by addition of 15 μM γ-^32 P) ATP (2 μCi). Reactions were terminated after 3 minutes at 0° by applying an aliquot of the assay mixture to a Whatman 3MM filter paper (2×2 cm), which was then suspended in ice-cold 10% trichloroacetic acid containing 10 mM pyrophosphate. This suspension was gently shaken for a period of 1 hour, during which the trichloroacetic acid/pyrophosphate mixture was changed three times. Finally, the filter papers were dried and radioactivity measured by scintillation counting.
Assays were conducted substantially as described above, except intact A-431 cell membranes were employed, rather than solubilized extracts, and assay mixtures contained 1 mM ouabain. In these Examples, reactions were permitted to proceed for 6 minutes. This technique is substantially similar to that disclosed by Navarro et al., Biochemistry, 21:6138 (1982).

pp60^src = test: Immune complex phosphorylation by pp60src immunoprecipitates of RSV-transformed cells; format: biochemical, Rous sarcoma virus (RSV); conditions: 250 nmoles per mg protein
Experimental: In this experiment, Boc-LeuCH2 Br was tested as an inhibitor of pp60^src and p130^fps, the tyrosine-specific protein kinases encoded by the transforming genes of RSV and Fujinami sarcoma virus, respectively.
These viral gene products were partially purified by preparation of immune complexes substantially according to the technique described by Collett et al., Proc. Nat. Acad. Sci. USA 75:2021 (1978). In this procedure, immunoprecipitates are prepared by incubation of extracts of virus-transformed cells with tumor-bearing rabbit serum (TBR) and Staphylococcus protein A suspension (for RSV-transformed cells) or anti-gag serum and Staphylococcus protein A suspension (for FSV-transformed cells).
Assay mixtures contained, in a final volume of 70 μL, 100 μg of immune complex protein, 20 mM Hepes, pH 7.4, and 1 mM MnCl2. Phosphorylation was initiated by addition of 1 μM (4 μCi) [γ-^32 P] ATP. After 10 minutes at about 23°, reactions were terminated by pipetting 20 μL aliquots of assay mixture onto 2×2 cm squares of Whatman 3 MM filter paper, which were immediately suspended in 10% TCA/10 mM sodium pyrophosphate. Test mixtures contained 250 nmoles Boc-LeuCH2 Br per mg protein. Controls for the immunoprecipitation procedure were prepared by immunoprecipitating transformed cell extracts with normal serum. Values in parentheses represent specific phosphorylation induced by virus-transformed cells.

lymphoma cell line YAC-1 = test: Tumor cell line growth inhibition, YAC-1; format: cell-based
Experimental: (§1) In this series of experiments, the tumor cell growth inhibitory capacity of various peptide halomethyl ketones was tested against lymphoma cell lines YAC-1 and MOLT-4, and against an erythroleukemia cell line, K-562. The lymphoma cell line YAC-1 is described by Kiessling, et al., Eur. J. Immunol. 5:112 (1975), and MOLT-4 is described by Minowada, et al., J. Natl. Cancer Inst. 49:891 (1972) and Nilsson, et al., Int. J. Cancer 15:321 (1975). The erythroleukemia cell line K-562 is described by Lozzio, et al., Leuk. Res. 3:363 (1979). In these experiments, cells were grown on standard media as 10 mL suspension cultures. Initial cell density was 10^5 cells/mL. At day 0, test compounds were introduced in ethanol; control cultures received an equal volume of ethanol. Cells were counted at the times indicated.

[2] = system: erythroleukemia cell line K-562; test: Tumor cell line growth inhibition, K-562; format: cell-based
Experimental: as §1

CC(C)CC(NC(=O)OC(C)(C)C)C(=O)CBr (centres unmarked) [Boc-LeuCH2 Br]
% inhibition, EGF Added ([1]; 400 nmol/mg protein): 65%
EGF Added (pmol 32P incorporated/min/mg protein) ([1]; 400 nmol/mg protein, control 20.2): 7.0 pmol^32 P incorporated/min/mg
% inhibition, EGF Added ([1]; 477 nmol/mg protein): 72%
EGF Added (pmol 32P incorporated/min/mg protein) ([1]; 477 nmol/mg protein, control 96.2): 27.4 pmol^32 P incorporated/min/mg
% inhibition, No EGF Added ([1]; 400 nmol/mg protein): 69%
No EGF Added (pmol 32P incorporated/min/mg protein) ([1]; 400 nmol/mg protein, control 7.3): 2.3 pmol^32 P incorporated/min/mg
% inhibition, No EGF Added ([1]; 477 nmol/mg protein): 74%
No EGF Added (pmol 32P incorporated/min/mg protein) ([1]; 477 nmol/mg protein, control 21.6): 5.6 pmol^32 P incorporated/min/mg
% inhibition (A-431 cell EGF receptor): 29%
Immune Complex Phosphorylation (pp60^src; pp60 + control serum, no inhibitor 7872): 7516 cpm
Immune Complex Phosphorylation, specific phosphorylation (in parentheses) (pp60^src; pp60src + TBR serum, no inhibitor 5112): 3202 cpm
Immune Complex Phosphorylation (pp60^src; pp60src + TBR serum, no inhibitor 12984): 10718 cpm
% Growth Relative to Control Cultures (lymphoma cell line YAC-1; 0.4 μg/mL, day 4): 97%
% Growth Relative to Control Cultures (lymphoma cell line YAC-1; 2.0 μg/mL, day 1): 42%
% Growth Relative to Control Cultures (lymphoma cell line YAC-1; 2.0 μg/mL, day 2): 31%
% Growth Relative to Control Cultures (lymphoma cell line YAC-1; 2.0 μg/mL, day 3): 28%
% Growth Relative to Control Cultures (lymphoma cell line YAC-1; 2.0 μg/mL, day 4): 12%
% Growth Relative to Control Cultures (lymphoma cell line YAC-1; 2.0 μg/mL, day 7): 28%
% Growth Relative to Control Cultures (lymphoma cell line YAC-1; 10. μg/mL, day 1): 67%
% Growth Relative to Control Cultures (lymphoma cell line YAC-1; 10. μg/mL, day 2): 32%
% Growth Relative to Control Cultures (lymphoma cell line YAC-1; 10. μg/mL, day 3): 22%
% Growth Relative to Control Cultures (lymphoma cell line YAC-1; 10. μg/mL, day 4): 13%
% Growth Relative to Control Cultures (lymphoma cell line YAC-1; 10. μg/mL, day 7): 16%
% Growth Relative to Control Cultures ([2]; 0.4 μg/mL, day 3): 70%
% Growth Relative to Control Cultures ([2]; 0.4 μg/mL, day 7): 85%
% Growth Relative to Control Cultures ([2]; 2.0 μg/mL, day 1): 53%
% Growth Relative to Control Cultures ([2]; 2.0 μg/mL, day 2): 22%
% Growth Relative to Control Cultures ([2]; 2.0 μg/mL, day 3): 19%
% Growth Relative to Control Cultures ([2]; 2.0 μg/mL, day 4): 16%
% Growth Relative to Control Cultures ([2]; 2.0 μg/mL, day 7): 69%
% Growth Relative to Control Cultures ([2]; 10. μg/mL, day 1): 33%
% Growth Relative to Control Cultures ([2]; 10. μg/mL, day 2): 22%
% Growth Relative to Control Cultures ([2]; 10. μg/mL, day 3): 7%
% Growth Relative to Control Cultures ([2]; 10. μg/mL, day 4): 17%
% Growth Relative to Control Cultures ([2]; 10. μg/mL, day 7): 13%
